Results reported in patent US20250340557A1, “PYRIMIDINE DERIVATIVE” (ASKA PHARMACEUTICAL CO., LTD., priority 2022, published 2025).

What follows are compounds tested against T1, human mPGES-1 (Homo sapiens, UniProt O14684) (assay: Test for mPGES-1 inhibitory activity (microsomal enzyme, PGE2 EIA)). Settings: microsomes from COS-1 cells transfected with human mPGES-1 cDNA; substrate PGH2 1 μM; 4° C., 4 minutes; PGE2 measured by EIA; read-out: h mPGES1 IC50.
T1 construct: made in house; host or cells: COS-1 cells (transient transfection; microsomal fraction used as enzyme)
T1 sequence (O14684 1-152): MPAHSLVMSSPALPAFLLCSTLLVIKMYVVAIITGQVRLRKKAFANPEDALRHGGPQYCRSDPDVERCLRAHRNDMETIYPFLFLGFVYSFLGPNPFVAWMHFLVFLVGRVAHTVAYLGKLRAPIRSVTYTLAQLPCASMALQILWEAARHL
Assay type: biochemical
Outline: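 IC50 values were derived from EIA-quantified PGE2 after a 4 min, 4 °C reaction with PGH2 at 1 μM final, stopped with ferric chloride/citric acid. Beforehand, compound (2% DMSO final) sat 15 min at 4 °C with human mPGES-1 microsomes from transiently transfected COS-1 cells. Buffer was sodium phosphate pH 7.2 containing 2.5 mM reduced glutathione and 1 mM EDTA.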

IC50 | Compound
< 10 nM | Cc1cccc(N2CCC(C(=O)NCc3ccc(C(F)(F)F)c(-c4nc(C(F)(F)F)cc(=O)[nH]4)c3F)CC2)n1 [Example 17, N-{2-fluoro-3-[6-oxo-4-(trifluoromethyl)-1,6-dihydropyrimidin-2-yl]-4-(trifluoromethyl)benzyl}-1-(6-methylpyridin-2-yl)piperidine-4-carboxamide]
< 10 nM | O=C(NCc1ccc(C(F)(F)F)c(-c2nc(C(F)(F)F)cc(=O)[nH]2)c1F)C1CCN(c2ccc3ccccc3n2)CC1 [Example 5, N-{2-fluoro-3-[6-oxo-4-(trifluoromethyl)-1,6-dihydropyrimidin-2-yl]-4-(trifluoromethyl)benzyl}-1-(quinolin-2-yl)piperidine-4-carboxamide]
< 1 nM | CCc1cc(=O)[nH]c(-c2c(C(F)(F)F)ccc(CNC(=O)C3CCN(c4ccc5cccc(C)c5n4)CC3)c2F)n1 [Example 10, N-[3-(4-ethyl-6-oxo-1,6-dihydropyrimidin-2-yl)-2-fluoro-4-(trifluoromethyl)benzyl]-1-(8-methylquinolin-2-yl)piperidine-4-carboxamide]
4.1 nM | O=C(NCc1ccc(C(F)(F)F)c(-c2nc(C(F)(F)F)cc(=O)[nH]2)c1F)C1CN(c2cccc(C(F)(F)F)n2)C1 [Example 26, N-{2-fluoro-3-[6-oxo-4-(trifluoromethyl)-1,6-dihydropyrimidin-2-yl]-4-(trifluoromethyl)benzyl}-1-[6-(trifluoromethyl)pyridin-2-yl]azetidine-3-carboxamide]
< 1 nM | O=C(NCc1ccc(C(F)(F)F)c(-c2nc3c(c(=O)[nH]2)CCC3)c1F)C1CCN(c2ccc(Cl)cc2)CC1 [Example 89, 1-(4-chlorophenyl)-N-[2-fluoro-3-(4-oxo-4,5,6,7-tetrahydro-3H-cyclopenta[d]pyrimidin-2-yl)-4-(trifluoromethyl)benzyl]piperidine-4-carboxamide]
16 nM | Cc1nc(-c2c(C(F)(F)F)ccc(CNC(=O)C3CCN(c4ccc(Cl)cc4)CC3)c2F)[nH]c(=O)c1F [Example 77, 1-(4-chlorophenyl)-N-[2-fluoro-3-(5-fluoro-4-methyl-6-oxo-1,6-dihydropyrimidin-2-yl)-4-(trifluoromethyl)benzyl]piperidine-4-carboxamide]
29 nM | O=c1cc(C(F)(F)F)nc(-c2c(C(F)(F)F)ccc(CNC(=O)[C@H]3CC[C@H](OCc4cccc(C(F)(F)F)c4)CC3)c2F)[nH]1 [Example 112, trans-N-{2-fluoro-3-[6-oxo-4-(trifluoromethyl)-1,6-dihydropyrimidin-2-yl]-4-(trifluoromethyl)benzyl}-4-{[3-(trifluoromethyl)benzyl]oxy}cyclohexane-1-carboxamide]
< 1 nM | CCc1nc(-c2c(C(F)(F)F)ccc(CNC(=O)C3CCN(c4ccc(C(F)(F)F)cn4)CC3)c2F)[nH]c(=O)c1F [Example 42, N-[3-(4-ethyl-5-fluoro-6-oxo-1,6-dihydropyrimidin-2-yl)-2-fluoro-4-(trifluoromethyl)benzyl]-1-[5-(trifluoromethyl)pyridin-2-yl]piperidine-4-carboxamide]
< 1 nM | Cc1cc(=O)[nH]c(-c2c(C(F)(F)F)ccc(CNC(=O)C3CCN(c4ccc(C(F)(F)F)cn4)CC3)c2F)n1 [Example 34, N-[2-fluoro-3-(4-methyl-6-oxo-1,6-dihydropyrimidin-2-yl)-4-(trifluoromethyl)benzyl]-1-[5-(trifluoromethyl)pyridin-2-yl]piperidine-4-carboxamide]
28 nM | O=c1cc(C(F)(F)F)nc(-c2c(C(F)(F)F)ccc(CNC(=O)[C@H]3C[C@@H](OCc4ccccc4C(F)(F)F)C3)c2F)[nH]1 [Example 143, cis-N-{2-fluoro-3-[6-oxo-4-(trifluoromethyl)-1,6-dihydropyrimidin-2-yl]-4-(trifluoromethyl)benzyl}-3-{[2-(trifluoromethyl)benzyl]oxy}cyclobutane-1-carboxamide]
26 nM | O=C(NCc1ccc(C(F)(F)F)c(-c2nc3c(c(=O)[nH]2)CCC3)c1F)C1CCN(c2ccc(C(F)(F)F)cn2)CC1 [Example 41, N-[2-fluoro-3-(4-oxo-4,5,6,7-tetrahydro-3H-cyclopenta[d]pyrimidin-2-yl)-4-(trifluoromethyl)benzyl]-1-[5-(trifluoromethyl)pyridin-2-yl]piperidine-4-carboxamide]
15 nM | Cc1nc(-c2c(C(F)(F)F)ccc(CNC(=O)C3CCN(c4ncc(Cl)cc4F)CC3)c2F)[nH]c(=O)c1F [Example 52, 1-(5-chloro-3-fluoropyridin-2-yl)-N-[2-fluoro-3-(5-fluoro-4-methyl-6-oxo-1,6-dihydropyrimidin-2-yl)-4-(trifluoromethyl)benzyl]piperidine-4-carboxamide]
< 1 nM | Cc1nc(-c2c(C(F)(F)F)ccc(CNC(=O)C3CCN(c4ccc5cccc(C)c5n4)CC3)c2F)[nH]c(=O)c1F [Example 14, N-[2-fluoro-3-(5-fluoro-4-methyl-6-oxo-1,6-dihydropyrimidin-2-yl)-4-(trifluoromethyl)benzyl]-1-(8-methylquinolin-2-yl)piperidine-4-carboxamide]

Same assay, conditions: microsomes of COS-1 cells transfected with human mPGES-1 cDNA; PGH2 1 μM; 4° C., 4 minutes; PGE2 by EIA; read-out: h mPGES1 IC50

IC50 | Compound
3.2 nM | CCc1nc(-c2c(C(F)(F)F)ccc(CNC(=O)[C@H]3C[C@H](OCc4cccc(F)c4F)C3)c2F)[nH]c(=O)c1F [Example 240, trans-3-[(2,3-difluorobenzyl)oxy]-N-[3-(4-ethyl-5-fluoro-6-oxo-1,6-dihydropyrimidin-2-yl)-2-fluoro-4-(trifluoromethyl)benzyl]cyclobutane-1-carboxamide]
< 1 nM | CCc1nc(-c2c(C(F)(F)F)ccc(CNC(=O)[C@H]3C[C@H](OCc4cc(F)cc(Cl)c4)C3)c2F)[nH]c(=O)c1F [Example 245, trans-3-[(3-chloro-5-fluorobenzyl)oxy]-N-[3-(4-ethyl-5-fluoro-6-oxo-1,6-dihydropyrimidin-2-yl)-2-fluoro-4-(trifluoromethyl)benzyl]cyclobutane-1-carboxamide]
15 nM | Cc1nc(-c2c(C(F)(F)F)ccc(CNC(=O)[C@H]3C[C@H](OCc4ccc(F)c(F)c4)C3)c2F)[nH]c(=O)c1F [Example 220, trans-3-[(3,4-difluorobenzyl)oxy]-N-[2-fluoro-3-(5-fluoro-4-methyl-6-oxo-1,6-dihydropyrimidin-2-yl)-4-(trifluoromethyl)benzyl]cyclobutane-1-carboxamide]
< 1 nM | CCc1nc(-c2c(C(F)(F)F)ccc(CNC(=O)[C@H]3C[C@H](OCc4ccc(C(F)(F)F)cc4)C3)c2F)[nH]c(=O)c1F [Example 234, trans-N-[3-(4-ethyl-5-fluoro-6-oxo-1,6-dihydropyrimidin-2-yl)-2-fluoro-4-(trifluoromethyl)benzyl]-3-{[4-(trifluoromethyl)benzyl]oxy}cyclobutane-1-carboxamide]
33 nM | O=c1cc(C(F)(F)F)nc(-c2c(C(F)(F)F)ccc(CNS(=O)(=O)c3ccccc3C(F)(F)F)c2F)[nH]1 [Example 272, N-{2-fluoro-3-[6-oxo-4-(trifluoromethyl)-1,6-dihydropyrimidin-2-yl]-4-(trifluoromethyl)benzyl}-2-(trifluoromethyl)benzenesulfonamide]
< 1 nM | Cc1nc(-c2c(C(F)(F)F)ccc(CNC(=O)[C@H]3C[C@H](OCc4ccc(F)c(Cl)c4)C3)c2F)[nH]c(=O)c1F [Example 227, trans-3-[(3-chloro-4-fluorobenzyl)oxy]-N-[2-fluoro-3-(5-fluoro-4-methyl-6-oxo-1,6-dihydropyrimidin-2-yl)-4-(trifluoromethyl)benzyl]cyclobutane-1-carboxamide]
< 1 nM | CCc1nc(-c2c(C(F)(F)F)ccc(CNC(=O)[C@H]3C[C@H](OCc4cccc(C(F)(F)F)c4)C3)c2F)[nH]c(=O)c1F [Example 233, trans-N-[3-(4-ethyl-5-fluoro-6-oxo-1,6-dihydropyrimidin-2-yl)-2-fluoro-4-(trifluoromethyl)benzyl]-3-{[3-(trifluoromethyl)benzyl]oxy}cyclobutane-1-carboxamide]
< 1 nM | Cc1nc(-c2c(C(F)(F)F)ccc(CNC(=O)[C@H]3C[C@H](OCc4ccc(F)cc4Cl)C3)c2F)[nH]c(=O)c1F [Example 224, trans-3-[(2-chloro-4-fluorobenzyl)oxy]-N-[2-fluoro-3-(5-fluoro-4-methyl-6-oxo-1,6-dihydropyrimidin-2-yl)-4-(trifluoromethyl)benzyl]cyclobutane-1-carboxamide]
2.1 nM | O=c1cc(C(F)(F)F)nc(-c2c(C(F)(F)F)ccc(CNC(=O)[C@H]3C[C@H](OCc4ccc(C(F)(F)F)cc4)C3)c2F)[nH]1 [Example 146, trans-N-{2-fluoro-3-[6-oxo-4-(trifluoromethyl)-1,6-dihydropyrimidin-2-yl]-4-(trifluoromethyl)benzyl}-3-{[4-(trifluoromethyl)benzyl]oxy}cyclobutane-1-carboxamide]
< 1 nM | CCc1nc(-c2c(C(F)(F)F)ccc(CNC(=O)[C@H]3C[C@H](OCc4cccc(Cl)c4F)C3)c2F)[nH]c(=O)c1F [Example 242, trans-3-[(3-chloro-2-fluorobenzyl)oxy]-N-[3-(4-ethyl-5-fluoro-6-oxo-1,6-dihydropyrimidin-2-yl)-2-fluoro-4-(trifluoromethyl)benzyl]cyclobutane-1-carboxamide]
< 1 nM | O=c1cc(C(F)(F)F)nc(-c2c(C(F)(F)F)ccc(CNC(=O)[C@H]3CC[C@H](c4ccc(Cl)cc4)CC3)c2F)[nH]1 [Example 279, trans-4-(4-chlorophenyl)-N-{2-fluoro-3-[6-oxo-4-(trifluoromethyl)-1,6-dihydropyrimidin-2-yl]-4-(trifluoromethyl)benzyl}cyclohexane-1-carboxamide]
